From ChEMBL document CHEMBL1137026, “Design and synthesis of novel Cdc25A-inhibitors having phosphate group as a hydrophilic residue” (Bioorg Med Chem Lett, 2004)

Assays:
[1] = molecular target: T1, M-phase inducer phosphatase 2 (Homo sapiens, UniProt P30305); experiment: Inhibitory concentration against dual-specificity phosphatase Cell division cycle (Cdc) 25B
T1 sequence (P30305 whole entry): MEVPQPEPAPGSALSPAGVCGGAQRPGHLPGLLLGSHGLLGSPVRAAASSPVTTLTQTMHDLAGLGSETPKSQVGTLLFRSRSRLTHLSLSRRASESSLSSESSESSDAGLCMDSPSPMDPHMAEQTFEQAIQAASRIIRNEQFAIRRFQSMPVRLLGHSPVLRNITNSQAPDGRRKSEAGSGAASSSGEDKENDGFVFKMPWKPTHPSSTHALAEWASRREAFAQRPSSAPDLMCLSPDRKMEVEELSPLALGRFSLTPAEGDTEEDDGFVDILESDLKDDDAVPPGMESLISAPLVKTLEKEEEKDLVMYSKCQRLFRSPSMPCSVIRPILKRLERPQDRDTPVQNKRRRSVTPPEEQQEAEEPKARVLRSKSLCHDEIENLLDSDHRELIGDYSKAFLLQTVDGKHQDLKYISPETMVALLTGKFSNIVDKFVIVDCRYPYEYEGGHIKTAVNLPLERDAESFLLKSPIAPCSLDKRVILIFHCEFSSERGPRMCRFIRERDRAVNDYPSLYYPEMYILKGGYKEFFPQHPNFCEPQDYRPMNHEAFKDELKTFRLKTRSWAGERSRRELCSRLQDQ

[2] = molecular target: T2, M-phase inducer phosphatase 1 (Homo sapiens, UniProt P30304); experiment: Inhibitory concentration against dual-specificity phosphatase Cell division cycle (Cdc) 25A
T2 sequence (P30304 whole entry): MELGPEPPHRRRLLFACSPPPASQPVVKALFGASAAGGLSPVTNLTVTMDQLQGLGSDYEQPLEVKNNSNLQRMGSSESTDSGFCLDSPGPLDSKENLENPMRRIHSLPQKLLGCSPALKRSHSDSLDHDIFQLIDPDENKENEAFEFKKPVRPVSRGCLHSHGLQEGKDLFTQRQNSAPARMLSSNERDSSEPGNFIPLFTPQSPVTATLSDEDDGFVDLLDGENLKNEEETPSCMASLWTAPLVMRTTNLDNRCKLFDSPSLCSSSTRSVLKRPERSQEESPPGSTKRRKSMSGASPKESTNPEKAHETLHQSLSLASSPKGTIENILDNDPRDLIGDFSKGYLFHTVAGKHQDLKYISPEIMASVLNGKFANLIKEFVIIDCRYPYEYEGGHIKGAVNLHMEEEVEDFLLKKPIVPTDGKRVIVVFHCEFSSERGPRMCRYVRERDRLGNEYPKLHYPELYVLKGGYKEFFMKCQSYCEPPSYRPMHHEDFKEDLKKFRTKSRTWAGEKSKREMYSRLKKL

| IC50 [1] [µM] | IC50 [2] [µM] | SMILES |
| --- | --- | --- |
| 5.8 | 3.9 | CC(C)CCC[C@@H](C)[C@H]1CCC2[C@@H](O)CCC[C@@]21C (some centres not stated) |
| 6.8 | 24.5 | CC(C)CCC[C@@H](C)[C@H]1CCC2[C@@](C)(CCOP(=O)(O)O)CCC[C@@]21C (some centres not stated) |
| 4.5 | 22.7 | CC(C)CCC[C@@H](C)[C@H]1CCC2[C@@](C)(CO)CCC[C@@]21C (some centres not stated) |
| 5.9 | 17.2 | CC(C)CCC[C@@H](C)[C@H]1CCC2/C(=C/C(=O)O)CCC[C@@]21C (some centres not stated) |
| 1.3 | 6.9 | CC(C)CCC[C@@H](C)[C@H]1CCC2[C@@](C)(CCO)CCC[C@@]21C (some centres not stated) |
| 5 | 8.2 | CC(C)CCC[C@@H](C)[C@H]1CCC2[C@@H](OP(=O)(O)O)CCC[C@@]21C (some centres not stated) |
| 1.7 | 5.5 | CC(C)CCC[C@@H](C)[C@H]1CCC2[C@](C)(CCO)CCC[C@@]21C (some centres not stated) |
| 3 | 0.9 | CC(C)CCC[C@@H](C)[C@H]1CCC2C(C)(COP(=O)(O)O)CCC[C@@]21C (single isomer, unassigned) |
| 3.7 | 0.7 | CC(C)CCC[C@@H](C)[C@H]1CCC2[C@@](C)(COP(=O)(O)O)CCC[C@@]21C (some centres not stated) |
| 1.2 | 5.5 | CC(C)CCC[C@@H](C)[C@H]1CCC2[C@](C)(CCOP(=O)(O)O)CCC[C@@]21C (some centres not stated) |
| 3.3 | 8.5 | CC(C)CCC[C@@H](C)[C@H]1CCC2[C@](C)(CO)CCC[C@@]21C (some centres not stated) |
